Here are results for twelve molecules from patent publication US11479546B2, “Antimalarial hexahydropyrimidine analogues” (UCB Biopharma SRL, priority 2018, dated 2022).

In the assay the test system is Plasmodium falciparum 3D7. The assay can be described thus: P. falciparum 3D7 asexual blood stage assay, Assay Procedure Version 2 (SYBR green readout). In kind it is cell-based. The following applies: Plasmodium falciparum, 3D7, Erythrocyte, 72 h, Version 2 of the assay procedure (asterisk *); 72 h incubation in infected erythrocytes; 50,000 nM to 15 nM. As to the method: Asexual Blood Stage Assay
The assay used to measure the effect of test compounds on a bloodstream stage of Plasmodium falciparum 3D7 strain employs SYBR green as the readout. This is a dye that binds to double stranded deoxyribonucleic acid (DNA) with a resulting increase in fluorescence, allowing detection of P. falciparum DNA in infected erythrocytes, and thereby providing a measure of parasite growth and propagation.
P. falciparum Culture Maintenance
Erythrocytes (A+blood) were prepared for both parasite culture and assay by washing 4 times with incomplete media (15.9 g RPMI 1640 (25 mM HEPES, L-glutamine), 1 g NaHCO3, 2 g glucose, 400 μL gentacin (500 mg/mL), 2 mL hypoxanthine solution (13.6 g/L in 0.1M NaOH pH 7.3) in 1 litre of media). The cells were centrifuged at 1800 g for 5 minutes, before decanting the supernatant and re-suspending in fresh incomplete media. On the final wash, the cells were re-suspended in complete media (incomplete media with 5 g/L AlbumaxII), and centrifuged at 1800 g for 3 minutes. This cell sediment was treated as 100% haematocrit.
P. falciparum 3D7 was cultured in erythrocytes at 5% haematocrit in complete media at 37° C. (1% O2, 3% CO2, balance N2). Cultures were split on a weekly basis to achieve a 1% parasitaemia in erythrocites at 5% haematocrit in fresh media. Culture media is replaced by fresh media every other day (2 times during the week).
[formula] where A=% inhibition at bottom; B=% inhibition at top; C=EC50; D=slope; x=inhibitor concentration; and y=% inhibition. […] Assay Procedure—Version 2
On day 1, test compounds were added to assay plates using Echo dispensing technology ([…] and 20 points titration). 50 nL of each compound dilution was added to 50 μL of culture (5% haematocrit, 0.5% parasitaemia) and incubated for 72 h at 37° C. (1% O2, 3% CO2, balance N2). Final concentrations of test compounds ranged from 50,000 nM to 15 nM, in […].
On day 4, 10 μL SYBR green (Invitrogen S7563 supplied as 10,000× concentrate in DMSO) pre-diluted to 3× concentrate with Lysis buffer (20 mM Tris pH 7.9, 5% EDTA, 0.16% w/v, 1.6% TX100 v/v) was added to the cultures and incubated in the dark, overnight, at room temperature.
On day 5, fluorescent signal was measured using a BioTek plate reader (excitation 485 nm, emission 528 nm). All data were processed using IDBS ActivityBase. Raw data were converted into percent inhibition through linear regression by setting the high inhibition control (mefloquine) as 100% and the no inhibition control (DMSO) as 0%. Quality control criteria for passing plates were as follows: Z′>0.5, S:B>3, % CV(no inhibition control)<15. The formula used to calculate Z′ is:
[formula] where μ denotes the mean; σ denotes the standard deviation; p denotes the positive control; and n denotes the negative control.
All EC50 curve fitting was undertaken using the following bi-phasic two site dose response using XLfit model 300 (IDBS):
[formula] where A=100 minus the top of the upper curve 1 and the bottom of lower curve; B=Hill slope; log(C)=IC50 concentration at lower site; log(D)=IC50 concentration at upper site; x=inhibitor concentration; and y=% inhibition.
The term IC50 denotes the concentration that inhibits the measured activity by half. Read a high IC50 as weaker potency in that assay. The molecule `C[C@@]1(c2cccc(Nc3cccnc3C#N)c2Cl)CC(=O)N(C2CCOCC2)C(=N)N1` [Example 51, 3-{2-Chloro-3-[(4S)-2-imino-4-methyl-6-oxo-1-(tetrahydro-pyran-4-yl)hexahydropyrimidin-4-yl]anilino}pyridine-2-carbo-nitrile] displayed an IC50 of 0.37 µM.

`C[C@@]1(c2cccc(Nc3cnc(C(F)(F)F)nc3)c2Cl)CC(=O)N(C2CCOCC2)C(=N)N1` [Example 52, (6S)-6-(2-Chloro-3-{[2-(trifluoromethyl)pyrimidin-5-yl]amino}phenyl)-2-imino-6-methyl-3-(tetrahydropyran-4-yl)hexahydropyrimidin-4-one] came in with a 50% inhibitory concentration (IC50) of 0.68 µM.

In turn, `C[C@@]1(c2cccc(Nc3ccccc3OC(F)(F)F)c2Cl)CC(=O)N(C2CCOCC2)C(=N)N1` [Example 53, (6S)-6-{2-Chloro-3-[2-(trifluoromethoxy)anilino]-phenyl}-2-imino-6-methyl-3-(tetrahydropyran-4-yl)-hexahydropyrimidin-4-one] registered an IC50 of 0.212 µM.

The molecule `COc1ccncc1Nc1cccc([C@]2(C)CC(=O)N(C3CCOCC3)C(=N)N2)c1Cl` [Example 54, (6S)-6-{2-Chloro-3-[(4-methoxypyridin-3-yl)amino]-phenyl}-2-imino-6-methyl-3-(tetrahydropyran-4-yl)-hexahydropyrimidin-4-one] had an IC50 of 0.655 µM.

In turn, `COc1nc(C)ccc1Nc1cccc([C@]2(C)CC(=O)N(C3CCOCC3)C(=N)N2)c1Cl` [Example 55, (6S)-6-{2-Chloro-3-[(2-methoxy-6-methylpyridin-3-yl)-amino]phenyl}-2-imino-6-methyl-3-(tetrahydropyran-4-yl)hexahydropyrimidin-4-one] gave an IC50 of 0.433 µM. This IC50 lies about 1.5-fold lower than the previous one.

Regarding `C[C@@]1(c2cccc(Nc3cnccc3C(F)(F)F)c2Cl)CC(=O)N(C2CCOCC2)C(=N)N1` [Example 56, (6S)-6-(2-Chloro-3-{[4-(trifluoromethyl)pyridin-3-yl]-amino}phenyl)-2-imino-6-methyl-3-(tetrahydropyran-4-yl)hexahydropyrimidin-4-one], the IC50 was 0.253 µM.

In the case of `C[C@@]1(c2cccc(Nc3cccc4ccccc34)c2Cl)CC(=O)N(C2CCOCC2)C(=N)N1` [Example 57, (6S)-6-[2-Chloro-3-(1-naphthyl-amino)phenyl]-2-imino-6-methyl-3-(tetrahydropyran-4-yl)hexahydropyrimidin-4-one], the IC50 came out at 0.6 µM.

`C[C@@]1(c2cccc(Nc3cccc(-c4ccccc4)c3)c2Cl)CC(=O)N(C2CCOCC2)C(=N)N1` [Example 58, (6S)-6-[2-Chloro-3-(3-phenyl-anilino)phenyl]-2-imino-6-methyl-3-(tetrahydropyran-4-yl)hexahydropyrimidin-4-one] displayed an IC50 of 1.63 µM.

The molecule `C[C@@]1(c2cccc(Nc3ccc4c(c3)OCO4)c2Cl)CC(=O)N(C2CCOCC2)C(=N)N1` [Example 59, (6S)-6-[3-(1,3-Benzodioxol-5-ylamino)-2-chlorophenyl]-2-imino-6-methyl-3-(tetrahydro-pyran-4-yl)hexahydropyrimidin-4-one] registered an IC50 of 0.365 µM.

In turn, `C[C@@]1(c2cccc(Nc3ccc(Cl)nc3)c2Cl)CC(=O)N(C2CCOCC2)C(=N)N1` [Example 60, (6S)-6-{2-Chloro-3-[(6-chloro-pyridin-3-yl)amino]phenyl}-2-imino-6-methyl-3-(tetrahydro-pyran-4-yl)hexahydropyrimidin-4-one] had an IC50 of 0.269 µM.

In the case of `C[C@@]1(c2cccc(Nc3cccc(-c4ccno4)c3)c2Cl)CC(=O)N(C2CCOCC2)C(=N)N1` [Example 61, (6S)-6-{2-Chloro-3-[3-(isoxazol-5-yl)anilino]phenyl}-2-imino-6-methyl-3-(tetrahydro-pyran-4-yl)hexahydropyrimidin-4-one], the IC50 is 0.753 µM. Compared with the last molecule, the IC50 is about 2.8-fold higher.

`CC(C)(C)c1ncc(Nc2cccc([C@]3(C)CC(=O)N(C4CCOCC4)C(=N)N3)c2Cl)cn1` [Example 62, (6S)-6-{3-[(2-tert-Butyl-pyrimidin-5-yl)amino]-2-chloro-phenyl}-2-imino-6-methyl-3-(tetrahydropyran-4-yl)-hexahydropyrimidin-4-one] registered an IC50 of 0.226 µM.
